Laboratory results as given in patent publication US20090068290A1, “BIFEPRUNOX DOSES FOR TREATING SCHIZOPHRENIA” (priority 2006, published 2009).

Legend:
[1] = Pooled metabolic analysis, 6-month study: body weight; conditions: for Weight, Mean (SD) change from baseline: endpoint
From the text: OBJECTIVE: To examine the metabolic effects of bifeprunox in patients with acute and stable schizophrenia.
METHODS: Metabolic data was compiled from one 6-month and four 6-week studies (i.e., a treatment period) of bifeprunox in patients with stable and acute schizophrenia, respectively. In the 6-month study, patients received bifeprunox (n=331) or placebo (PBO) (n=166). […] Metabolic evaluations included body weight, body mass index (BMI), plasma glucose and lipid profiles. Fasting glucose and lipid values were assessed in one 6-week study and in the 6-month study. Triglyceride:HDL ratio (TG:HDL) was calculated as a marker of insulin resistance. No statistical analyses were performed; only descriptive statistics are presented.

[2] = tested on: patients with chronic schizophrenia; experiment: PANSS negative subscale score, Clinical Study Four; assay type: in vivo, human; conditions: FAS, ANCOVA; for PANSS negative subscale, Adjusted Mean Change from Baseline (LS mean): LOCF; for mean PANSS negative subscale scores versus PBO, per-visit LOCF analysis: both BX doses
Description: (§1) METHODOLOGY: This study was a multinational, multicenter, randomized, double-blind, parallel-group, placebo-controlled, fixed-dose study. The study consisted of a 3- to 6-day antipsychotic-free run-in period, after which patients were randomised to 6 months of double-blind treatment with fixed doses of bifeprunox (20 mg/day (BX20) or 30 mg/day (BX30)) or placebo (PBO). Patients allocated to the BX groups were up-titrated from 0.25 mg/day over 7 days (BX20) or 8 days (BX30), and then continued on these doses for the remainder of the study. […] At predetermined time points, blood samples were obtained for drug concentration analysis of BX and its major metabolites (3′- and 4′-sulfate conjugates of BX), and pharmaco-economic assessments were performed.

[3] = Clinical laboratory assessments (lipid shifts, thyroid function), Clinical Study Two; assay type: in vivo, human
Description: Pharmacokinetic (PK) data of bifeprunox in schizophrenic subjects were also assessed and are presented in a separate report (combined with data from study S1543003).
Subjects who completed this study had the option to continue in the long-term. […] Risperidone-treated subjects were titrated from 2 mg to 6 mg daily over a three-day period and were subsequently maintained at 6 mg/day for the remainder of the treatment period. […] Blood samples were also obtained at Screening/Baseline, Week 3, and Week 6 for clinical laboratory assessments.

[4] = tested on: adult subjects with schizophrenia; experiment: CGI Severity of Illness score, Clinical Study One; assay type: in vivo, human; design: Change from Baseline in CGI Severity of Illness Score, Median: scale not given here; conditions: for Change from Baseline in CGI Severity of Illness Score, Mean (S.D.) / Change from Baseline in CGI Severity of Illness Score, Median / Change from Baseline in CGI Severity of Illness Score, Trt Effect (bifeprunox—placebo): ITT population
Description: There were five treatment groups in this study. […] Study medication was administered once daily. After Baseline measurements were performed, the titration phase was begun. Bifeprunox treated subjects were titrated up to 5 mg, 10 mg or 20 mg according to a standardized titration schedule (Day 1: 0.125 mg, Day 2: 0.25 mg, Day 3: 0.5 mg, Day 4: 1.0 mg, Day 5: 2.0 mg, Day 6: 5.0 mg, Day 7: 10.0 mg, Day 8: 20 mg). When the assigned dose was reached, subjects were maintained at that dose for the remainder of the six-week treatment period.
The change in the Positive and Negative Symptom Scale (PANSS) total score, from baseline to endpoint, was the primary outcome measure. Secondary efficacy measures included: PANSS positive, PANSS negative, PANSS general psychopathology (GPP) score, PANSS-derived Brief Psychiatric Rating Scale (BPRS) score, Clinical Global Impressions-Severity of Illness (CGI-S), CGI-Improvement (CGI-I) scores, and responder rates. Safety and tolerability evaluations included extrapyramidal symptoms (EPS), weight gain, lipid profile, and serum prolactin.

[5] = Excretion of radioactivity after [14C]-labeled bifeprunox; conditions: single oral dose of [14C]-labeled bifeprunox
CYP2C9, CYP3A4, CYP2D6 = experiment: Metabolism and drug interactions of bifeprunox
From the text: The objective of this study is to assess the pharmacokinetics (PK) of bifeprunox. The PK of bifeprunox in healthy subjects were investigated based on a pooled analysis of PK parameters from 21 clinical pharmacology studies. The pooled analysis included PK profiles after single and multiple doses to 132 and 399 subjects, respectively, and explored the potential effects of age, gender, body weight, and race. In addition, PK in patients with schizophrenia were investigated using a population PK approach based on samples from 376 patients in phase II studies and 434 patients in phase III studies.

[6] = tested on: patients with chronic schizophrenia; experiment: CGI-I score and CGI-I responders (score 2 or less), Clinical Study Four; assay type: in vivo, human; conditions: FAS; for proportion of patients with a CGI-I score ≦2 / CGI-I, Adjusted mean values (LS mean): LOCF; for CGI-I, Adjusted mean values (LS mean): adjusted mean values instead of change from baseline
Description: as §1
CLINICAL STUDY FOUR: The proportion of patients with a CGI-I score ≦2 at each visit (CGI-I responders; FAS, LOCF) is show below in FIG. 5.

[7] = baseline BMI 18.5-25 kg/m^2, BX total doses
[8] = baseline BMI <18.5 kg/m^2, BX total doses
[9] = baseline BMI >25-30 kg/m^2, BX total doses
[10] = baseline BMI >30 kg/m^2, BX total doses
[11] = baseline BMI All, BX total doses
[12] = Bifeprunox 10 mg, Endpoint LOCF
[13] = Bifeprunox 20 mg, Endpoint LOCF

O=c1[nH]c2cccc(N3CCN(Cc4cccc(-c5ccccc5)c4)CC3)c2o1 [Bifeprunox, 7-[4-([1,1′-biphenyl]-3-ylmethyl)-1-piperazinyl]-2(3H)-benzoxazolone]
≧7% weight decrease, (%) [1, 7]: 8.7%
≧7% weight increase, (%) [1, 7]: 3.3%
≧7% weight decrease, (%) [1, 8]: 23.1%
≧7% weight decrease, (%) [1, 9]: 4.7%
≧7% weight increase, (%) [1, 9]: 2.4%
≧7% weight decrease, (%) [1, 10]: 12.8%
≧7% weight decrease, (%) [1, 11]: 8.8%
≧7% weight increase, (%) [1, 11]: 2.5%
Weight, Mean (SD) change from baseline [1, 7]: −0.9 (2.9) kg
Weight, Mean (SD) change from baseline [1, 8]: −0.8 (2.6) kg
Weight, Mean (SD) change from baseline [1, 9]: −0.9 (2.7) kg
Weight, Mean (SD) change from baseline [1, 10]: −3.0 (5.6) kg
Weight, Mean (SD) change from baseline [1, 11]: −1.1 (3.3) kg
mean weight change ([1]; final evaluation (LOCF)): -1.1 kg
mean change in weight ([1]; patients with nausea or vomiting): -1.4 kg
mean change in weight ([1]; patients without nausea or vomiting): -1.0 kg
PANSS negative subscale, Adjusted Mean Change from Baseline (LS mean) ([2]; Month 6, listed as BX20): −1.6
PANSS negative subscale, Adjusted Mean Change from Baseline (LS mean) ([2]; Month 6, listed as BX30): −1.7
PANSS negative subscale, Adjusted Mean Change from Baseline (LS mean) ([2]; Week 6, listed as BX20): −2.0
PANSS negative subscale, Adjusted Mean Change from Baseline (LS mean) ([2]; Week 6, listed as BX30): −1.6
mean PANSS negative subscale scores versus PBO, per-visit LOCF analysis ([2]; listed as BX): statistically significantly superior to that with PBO at all time points, except at Weeks 2 and 4 for the BX30 group
mean PANSS negative subscale scores versus PBO, per-visit LOCF analysis ([2]; listed as BX20): statistically significantly superior to that with PBO at all time points, except at Weeks 2 and 4 for BX30
incidence of N to H shifts in tri-iodine thyronine ([3]; Bifeprunox 30 mg): 6%
incidence of N to L shifts in TSH ([3]; Bifeprunox 30 mg): 4%
incidence of N to H shifts in tri-iodine thyronine ([3]; Bifeprunox 40 mg): 5%
incidence of N to L shifts in TSH ([3]; Bifeprunox 40 mg): 5%
shifts in lipids compared with the placebo and risperidone groups ([3]; bifeprunox 30, 40 mg, 6 weeks): lower incidence of N to H shifts in triglycerides, VLDL, and LDL
CGI severity of illness score, treatment effect (bifeprunox—placebo) ([4]; Bifeprunox 5 mg, Endpoint LOCF): −0.31
Change from Baseline in CGI Severity of Illness Score, Mean (S.D.) ([4]; Bifeprunox 5 mg, Endpoint LOCF): −0.58 (1.10)
Change from Baseline in CGI Severity of Illness Score, Median ([4]; Bifeprunox 5 mg, Endpoint LOCF): 0.0
Change from Baseline in CGI Severity of Illness Score, Trt Effect (bifeprunox—placebo) ([4]; Bifeprunox 5 mg, Endpoint LOCF): −0.31
Change from Baseline in CGI Severity of Illness Score, Mean (S.D.) ([4]; Bifeprunox 5 mg, Week 1, LOCF): −0.18 (0.68)
Change from Baseline in CGI Severity of Illness Score, Median ([4]; Bifeprunox 5 mg, Week 1, LOCF): 0.0
Change from Baseline in CGI Severity of Illness Score, Mean (S.D.) ([4]; Bifeprunox 5 mg, Week 2, LOCF): −0.37 (0.83)
Change from Baseline in CGI Severity of Illness Score, Median ([4]; Bifeprunox 5 mg, Week 2, LOCF): 0.0
Change from Baseline in CGI Severity of Illness Score, Mean (S.D.) ([4]; Bifeprunox 5 mg, Week 3, LOCF): −0.47 (0.90)
Change from Baseline in CGI Severity of Illness Score, Median ([4]; Bifeprunox 5 mg, Week 3, LOCF): 0.0
Change from Baseline in CGI Severity of Illness Score, Mean (S.D.) ([4]; Bifeprunox 5 mg, Week 4, LOCF): −0.52 (1.01)
Change from Baseline in CGI Severity of Illness Score, Median ([4]; Bifeprunox 5 mg, Week 4, LOCF): 0.0
CGI severity of illness score, treatment effect (bifeprunox—placebo) [4, 12]: 0.12
Change from Baseline in CGI Severity of Illness Score, Mean (S.D.) [4, 12]: −0.18 (1.04)
Change from Baseline in CGI Severity of Illness Score, Median [4, 12]: 0.0
Change from Baseline in CGI Severity of Illness Score, Trt Effect (bifeprunox—placebo) [4, 12]: 0.12
Change from Baseline in CGI Severity of Illness Score, Mean (S.D.) ([4]; Bifeprunox 10 mg, Week 1, LOCF): 0.13 (0.75)
Change from Baseline in CGI Severity of Illness Score, Median ([4]; Bifeprunox 10 mg, Week 1, LOCF): 0.0
Change from Baseline in CGI Severity of Illness Score, Mean (S.D.) ([4]; Bifeprunox 10 mg, Week 2, LOCF): −2.3 (0.92)
Change from Baseline in CGI Severity of Illness Score, Median ([4]; Bifeprunox 10 mg, Week 2, LOCF): 0.0
Change from Baseline in CGI Severity of Illness Score, Mean (S.D.) ([4]; Bifeprunox 10 mg, Week 3, LOCF): −0.22 (1.01)
Change from Baseline in CGI Severity of Illness Score, Median ([4]; Bifeprunox 10 mg, Week 3, LOCF): 0.0
Change from Baseline in CGI Severity of Illness Score, Mean (S.D.) ([4]; Bifeprunox 10 mg, Week 4, LOCF): −0.16 (0.99)
Change from Baseline in CGI Severity of Illness Score, Median ([4]; Bifeprunox 10 mg, Week 4, LOCF): 0.0
Change from Baseline in CGI Severity of Illness Score, Mean (S.D.) [4, 13]: −0.52 (0.96)
Change from Baseline in CGI Severity of Illness Score, Median [4, 13]: 0.0
Change from Baseline in CGI Severity of Illness Score, Trt Effect (bifeprunox—placebo) [4, 13]: −0.19
Change from Baseline in CGI Severity of Illness Score, Mean (S.D.) ([4]; Bifeprunox 20 mg, Week 1, LOCF): −0.31 (0.74)
Change from Baseline in CGI Severity of Illness Score, Median ([4]; Bifeprunox 20 mg, Week 1, LOCF): 0.0
Change from Baseline in CGI Severity of Illness Score, Mean (S.D.) ([4]; Bifeprunox 20 mg, Week 2, LOCF): −0.50 (0.85)
Change from Baseline in CGI Severity of Illness Score, Median ([4]; Bifeprunox 20 mg, Week 2, LOCF): 0.0
Change from Baseline in CGI Severity of Illness Score, Mean (S.D.) ([4]; Bifeprunox 20 mg, Week 3, LOCF): −0.57 (0.90)
Change from Baseline in CGI Severity of Illness Score, Median ([4]; Bifeprunox 20 mg, Week 3, LOCF): 0.0
Change from Baseline in CGI Severity of Illness Score, Mean (S.D.) ([4]; Bifeprunox 20 mg, Week 4, LOCF): −0.57 (0.89)
Change from Baseline in CGI Severity of Illness Score, Median ([4]; Bifeprunox 20 mg, Week 4, LOCF): 0.0
CGI severity of illness score, treatment effect (bifeprunox—placebo) ([4]; bifeprunox 20 mg, Endpoint LOCF): −0.19
radioactivity excreted in the feces [5]: 74%
radioactivity excreted in the urine [5]: 13%
metabolizing enzymes (CYP2C9, CYP3A4, CYP2D6; human, in vivo): metabolized by CYP2C9, CYP3A4 and to a lesser extent, CYP2D6
interaction potential (CYP2C9, CYP3A4, CYP2D6; in vivo): low interaction potential
plasma levels in CYP2C9 slow/intermediate metabolizers (CYP2C9, CYP3A4, CYP2D6; vs subjects with normal enzyme activity): higher plasma levels
bifeprunox exposure on co-administration (CYP2C9, CYP3A4, CYP2D6; with carbamazepine (CYP3A4 inducer)): reduced
bifeprunox exposure on co-administration (CYP2C9, CYP3A4, CYP2D6; with fluconazole (CYP2C9 inhibitor)): increased
proportion of patients with a CGI-I score ≦2 ([6]; BX20, Month 6): 22%
proportion of patients with a CGI-I score ≦2 ([6]; BX20, Week 6): 17%
proportion of patients with a CGI-I score ≦2 ([6]; BX30, Month 6): 20%
proportion of patients with a CGI-I score ≦2 ([6]; BX30, Week 6): 19%
CGI-I, Adjusted mean values (LS mean) ([6]; Month 6, ANCOVA): 4.0
CGI-I, Adjusted mean values (LS mean) ([6]; Week 6, ANCOVA, listed as BX20): 3.8
CGI-I, Adjusted mean values (LS mean) ([6]; Week 6, ANCOVA, listed as BX30): 3.7
mean CGI-I scores versus PBO, per-visit LOCF analysis ([6]; both BX doses, ANCOVA): statistically significantly superior to PBO from Week 6 onwards
